One data set deals with murine CD8+ T cells. The data set is described as follows: Murine CD8+ T-cell proliferation (CFSE), Example 6. In kind it is cell-based, C57BL/6 mice. The conditions noted are these: 30 mM, ConA 10 μg/ml. The protocol: Preparation of test materials: TTA, compound A and compound B were formulated in RPMI media under aseptic conditions. The pH was adjusted to approximately 7.5 before dosing cells.
Tissue culture and dosing: Splenocytes of C57BL/6 mice were stained with CFSE and prepared, cultured, and dosed. Cells were seeded at 1×10^5 cells/well in a 96-well round-bottomed plate.
Controls: Two controls were used. A negative control dosed with 10 ng/ml IL2 was used, and a positive control dosed with 20 μg/ml ConA and 10 ng/ml IL2 was used.
Treatment: After ConA stimulation (10 μg/ml), cells were dosed with 30 mM compound A, B or C with or without 0.1 mM 30:70 PS:DMPC liposomes. All wells were dosed with 10 ng/ml of IL-2.

The test system of data set [1] is Granzyme B and IFN-γ. Put plainly: GzmB+/IFN-γ+ double-positive murine CD8+ T-cells, Example 7. The format is cell-based, C57BL/6 mice. The text has this:
(§1) In this study, the effects of increasing doses of compound B and compound C on proliferation (CFSE staining), activation (Granzyme B and IFN-γ), and checkpoint modulation (PD1 and TIM3) of murine CD8+ T-cells in the presence and absence of phosphatidylserine (PS) were explored.
(§2) Preparation of test materials: 30:70 PS:DMPC liposomes were synthesized in PBS. […] Compound C was first dissolved in a small volume of DMSO before diluting to the final desired concentration.
(§3) Tissue culture and dosing: Splenocytes of C57BL/6 mice were stained with CFSE and prepared, cultured, and dosed. Cells were seeded at 4×10^5 cells/well.
(§4) Controls: Two controls were used. A negative control dosed with 10 ng/ml IL-2 was used, and a positive control dosed with 20 μg/ml ConA and 10 ng/ml IL-2 was used.
(§5) Treatment: After ConA stimulation (10 μg/ml), cells were dosed with log 3 dilution of compound B or compound C to cover a range from 1×10^−3 to 30 mM in duplicates with or without 0.1 mM PS:DMPC liposomes. All wells were dosed with 10 ng/ml of IL-2.
(§6) Flow cytometer: Flow cytometer analysis was performed to assess cell proliferation by CFSE, activation by double staining for Granzyme B (GzmB) and IFN-γ, checkpoint modulation by double staining for PD-1 and TIM3.
(§7) Exposure-response analysis: Change from baseline was calculated for each marker as follows:
(§8) Concentration versus change was fitted to an appropriate three-, four- or five-parameter log-logistic model using “dre” package in “R.”
The fold change from baseline GzmB+/IFN-γ+ double-positive CD8+ T-cells as a function of increasing doses of compound B was calculated using equation 1, where Responsecontrol was GzmB+/IFN-γ+ double-positive CD8+ T-cells in cells treated with IL-2 alone and Responsetreatment was GzmB+/IFN-γ+ double-positive CD8+ T-cells at each dose of compound B. The baseline PS response was calculated using the same equation with Responsetreatment as the GzmB+/IFN-γ+ double-positive CD8+ T-cells treated with 0.1 mM PS.

The next data set has as its system TIM3 and PD-1. The data set is described as follows: TIM3+/PD-1+ double-positive murine CD8+ T-cells, Example 7. The format is cell-based, C57BL/6 mice. The conditions noted are these: for effect on PS-stimulated TIM3+/PD-1+ double-positive CD8+ T-cells: 0.1 mM PS; for average reduction in TIM3+/PD-1+ double-positive CD8+ T-cells vs 0.1 mM PS treated cells / average reduction in TIM3+/PD-1+ double-positive CD8+ T-cells vs negative control: absence of PS, dose-independent.
Description: as §1, §2, §3, §4, §5, §6, §7, §8
The fold change from baseline of TIM3+/PD-1+ double-positive CD8+ T-cells as a function of increasing doses of compound B was calculated using equation 1, where Responsecontrol was TIM3+/PD-1+ double-positive CD8+ T-cells in cells treated with IL-2 alone and Responsetreatment was TIM3+/PD-1+ double-positive CD8+ T-cells at each dose of compound B. The baseline PS response was calculated using the same equation with Responsetreatment as the TIM3+/PD-1+ double-positive CD8+ T-cells treated with 0.1 mM PS.

Data set [2] relates to Granzyme B and IFN-γ. The data set is described as follows: Dose-response of GranzymeB/IFN-γ double positivity in murine CD8+ T-cells, Example 9. The conditions noted are these: Mus musculus, T-cell; for Emax: FIG. 4, 5-parameter fit, read-out: maximal response (GzmB/IFN-γ double positive CD8+ T-cells). The format is cell-based, C57BL/6 mice. The protocol: A dose-response analysis of compounds B-E in murine CD8+ T-cells was conducted to evaluate the effect of dose on GranzymeB/IFN-γ double positivity.
Compound C, D and E were first dissolved in a small volume of DMSO before diluting to the final desired concentration.
Splenocytes from naïve C57BL/6 mice were stained with CFSE, prepared, cultured, and dosed. Cells were seeded at 2×10^5 cells/well. Negative control was dosed with 10 ng/ml IL-2. After ConA stimulation (10 μg/ml), cells were dosed with log 3 dilution of each compound from 3×10^−9 to 30 µM in triplicates. All wells were dosed with 10 ng/ml of IL-2.
Flow cytometer analysis was performed to assess percent CD8+ T-cells and percent activation by double staining for Granzyme B (GzmB) and IFN-γ as described in Example 7. Concentration versus response curve was fitted to a 4- or 5-parameter log-logistic model using the “dre” package in “R”. Both EC50 and EC90 were obtained by model fitting.

The next data set in a line: Oral bioavailability. In kind it is in vivo.
The mark [3] stands for this setting: increasing doses, absence of PS.

The term pEC50 denotes the negative decadic logarithm of the EC50, by convention in mol/L. Usually EC90 stands for the point of the concentration-response curve where the effect stands at 90%. High values mean weaker potency, low ones greater potency. By bioavailability is commonly meant dose-corrected exposure relative to a reference, in per cent.

pEC50: −log10 of the molar value.

On to `O=C(O)[C@H](O)[C@@H](O)C(=O)OCCCc1ccccc1` [Compound B, (2R,3R)-2,3-dihydroxy-4-oxo-4-(3-phenylpropoxy)butanoic acid], for which the “percent of CD8+ T-cell proliferation” value with murine CD8+ T cells (in absence of PS) is 78.3%. In the data set with Granzyme B and IFN-γ [1] (highest dose, 0.1 mM PS), the “fold increase in GzmB+/IFN-γ+ double-positive CD8+ T-cells vs PS treated cell” value was found to be 4.6 fold and the “fold increase in GzmB+/IFN-γ+ double-positive CD8+ T-cells vs negative control” value (“fold increase … vs negative control” for short) is 2 fold. The “fold increase … vs negative control” value with Granzyme B and IFN-γ [1] (setting [3]) is on record as “more than 16 fold”. Further, in the data set with TIM3 and PD-1, the “effect on PS-stimulated TIM3+/PD-1+ double-positive CD8+ T-cells” value was “reverse the stimulatory effects of PS”, the “average reduction in TIM3+/PD-1+ double-positive CD8+ T-cells vs 0.1 mM PS treated cells” value is “about ⅔” and the “average reduction in TIM3+/PD-1+ double-positive CD8+ T-cells vs negative control” value was “about ⅗”. In the data set on Granzyme B and IFN-γ [2] (4-parameter model), this compound showed a pEC50 of 8.01 and an EC90 of 950 nM. In the data set on Granzyme B and IFN-γ [2] (5-parameter model), the pEC50 is 7.96 and the EC90 stood at 3000 nM. Besides, the Emax in the data set with Granzyme B and IFN-γ [2] was around 60%. The compound also came in with a bioavailability in the data set “Oral bioavailability” (mouse, in vivo, po, data not shown) of around 30%.
As to `O=C(O)[C@H](O)[C@@H](O)C(=O)OCCC(c1ccccc1)c1ccccc1` [Compound C, (2R,3R)-4-(3,3-diphenylpropoxy)-2,3-dihydroxy-4-oxobutanoic acid], in the data set with murine CD8+ T cells (in absence of PS), the “percent of CD8+ T-cell proliferation” value was 84.5%. Moreover, the “percent of CD8+ T-cell proliferation” value with murine CD8+ T cells (in the presence of 0.1 mM PS) was 55.5%. In the data set with Granzyme B and IFN-γ [1] (highest dose, 0.1 mM PS), the “fold increase in GzmB+/IFN-γ+ double-positive CD8+ T-cells vs PS treated cell” value came out at 18 fold and the “fold increase … vs negative control” value is on record as 10 fold. Besides, in the data set with Granzyme B and IFN-γ [1] (setting [3]), the “fold increase … vs negative control” value is listed as “about 30 fold”. Moreover, in the data set with TIM3 and PD-1, the “effect on PS-stimulated TIM3+/PD-1+ double-positive CD8+ T-cells” value is “can reverse the stimulatory effect of PS”, the “average reduction in TIM3+/PD-1+ double-positive CD8+ T-cells vs 0.1 mM PS treated cells” value is given as “about ⅘” and the “average reduction in TIM3+/PD-1+ double-positive CD8+ T-cells vs negative control” value was “about ⅔”. In the data set with Granzyme B and IFN-γ [2] (4-parameter model), the pEC50 was 7.37 and the EC90 is 29000 nM. In the data set on Granzyme B and IFN-γ [2] (5-parameter model), this compound gave a pEC50 of 7.38 and an EC90 of 28000 nM. Besides, in the data set with Granzyme B and IFN-γ [2], the Emax was around 60%. In the data set “Oral bioavailability” (prior study), the oral bioavailability entry was “not orally bioavailable”.
